Measurements from ChEMBL document CHEMBL1122235, “4'-Methylangelicins: new potential agents for the photochemotherapy of psoriasis” (J Med Chem, 1983).
≈ marks a conversion by molar mass, not a printed value.

Experiments:
[1] = Rate constant of the photoreaction between compound and DNA.; type: ADME
Nucleic Acid = assay: Association constant to an isolated site calf thymus DNA; type: nucleic-acid assay; conditions: Bos taurus
[2] = Partition coefficient between octanol and water; type: physicochemical
[3] = Solubility in water was determined; type: physicochemical
Mus musculus [4] = assay: In vivo inhibition of epidermal DNA synthesis in mouse after topical application; type: functional
[5] = In vivo inhibition of epidermal DNA synthesis in mouse after oral administration relativ to that of 8-MOP; type: functional
Mus musculus [6] = assay: In vivo inhibition of epidermal DNA synthesis in mouse after oral administration; type: functional
[7] = In vivo inhibition of epidermal DNA synthesis in mouse after topical application relative to that of 8-MOP; type: functional
[8] = Frequency of binding sites i.e., number of ligands bound per nucleotide
[9] = Number of nucleotides occluded by a bound furocoumarin molecule

| Compound | Rate constant [1] | Binding constant (Nucleic Acid) | Partition coefficient [2] | Solubility ([3]; buffer) | Inhibition (Mus musculus [4]) | Relative activity [5] | Inhibition (Mus musculus [6]) | Relative activity [7] | 1/n [8] | Number [9] | Solubility ([3]; water, read-out: Solubility) |
| --- | --- | --- | --- | --- | --- | --- | --- | --- | --- | --- | --- |
| Cc1cc(=O)oc2c1ccc1occc12 | 0.016 min⁻¹ |  |  |  |  |  |  |  |  |  |  |
| Cc1cc2c(ccc3ccc(=O)oc32)o1 | 0.021 min⁻¹ |  |  |  |  |  |  |  |  |  |  |
| O=c1ccc2ccc3occc3c2o1 [ANGELICIN] | 0.011 min⁻¹ | 560 | 120 | 0.000105 M l-1 | 17.5% | 0.71 | 28% | 0.28 | 0.063 | 15.9 |  |
| Cc1cc(=O)oc2c1ccc1occ(C)c12 | 0.073 min⁻¹ | 6600 | 1190 | 0.000012 M l-1 | 44.27% | 0.66 | 25.82% | 0.72 | 0.08 | 12.5 | 2.6 µg/mL (≈ 12.1 µM) |
| Cc1coc2ccc3ccc(=O)oc3c12 | 0.037 min⁻¹ | 975 | 240 | 0.00007 M l-1 | 58.43% | 0.94 | 36.75% | 0.95 | 0.065 | 15.4 | 14 µg/mL (≈ 69.9 µM) |
| Cc1cc2occc2c2oc(=O)ccc12 | 0.034 min⁻¹ |  |  |  |  |  |  |  |  |  |  |
| COc1c2occc2cc2ccc(=O)oc12 [METHOXSALEN] | 0.031 min⁻¹ | 736 |  |  | 61% | 1 | 39.1% | 1 | 0.128 | 7.81 |  |
| Cc1cc2occ(C)c2c2oc(=O)ccc12 | 0.059 min⁻¹ | 5400 | 1041 | 0.000022 M l-1 | 58.41% | 1.36 | 53.33% | 0.95 | 0.08 | 12.5 | 4.7 µg/mL (≈ 21.9 µM) |
